Assay results from patent US20220386606A1, “SPECIFICALLY SUBSTITUTED 3-PHENYL-5-SPIROCYCLOPENTYL-3-PYRROLIN-2-ONES AND THEIR USE AS HERBICIDES” (Bayer Aktiengesellschaft, priority 2019, published 2022).

What was measured:
LOLRI [1] = assay: Pre-emergence herbicidal action against LOLRI (Table 8, titled post-emergence at 320 g/ha); format: in vivo, Lolium rigidum; details: table stands in the pre-emergence section
From the text: (§1) Seeds of monocotyledonous and dicotyledonous weed plants and crop plants are laid out in sandy loam soil in wood-fiber pots and covered with soil. The compounds of the invention, formulated in the form of wettable powders (WP) or as emulsion concentrates (EC), are then applied to the surface of the covering soil as aqueous suspension or emulsion at a water application rate equating to 600 to 800 L/ha with addition of 0.2% wetting agent.
(§2) After the treatment, the pots are placed in a greenhouse and kept under good growth conditions for the trial plants. The damage to the test plants is scored visually after a test period of 3 weeks by comparison with untreated controls (herbicidal activity in percent (%): 100% activity=the plants have died, 0% activity=like control plants).

AVEFA [2] = assay: Pre-emergence herbicidal action against AVEFA; format: in vivo, Avena fatua; details: 320 g/ha, scored visually after 3 weeks vs untreated controls
From the text: as §1, §2

ALOMY [3] = assay: Pre-emergence herbicidal action against ALOMY; format: in vivo, Alopecurus myosuroides; details: 320 g/ha, scored visually after 3 weeks vs untreated controls
From the text: as §1, §2

DIGSA [4] = assay: Pre-emergence herbicidal action against DIGSA; format: in vivo, Digitaria sanguinalis; details: 320 g/ha, scored visually after 3 weeks vs untreated controls
From the text: as §1, §2

ECHCG [5] = assay: Pre-emergence herbicidal action against ECHCG; format: in vivo, Echinochloa crus-galli; details: 320 g/ha, scored visually after 3 weeks vs untreated controls
From the text: as §1, §2

ALOMY [6] = assay: Post-emergence herbicidal action against ALOMY; format: in vivo, Alopecurus myosuroides; details: 80 g/ha, visual assessment after about 3 weeks
Protocol: (§3) Seeds of monocotyledonous and dicotyledonous weed and crop plants are laid out in sandy loam soil in wood-fiber pots, covered with soil and cultivated in a greenhouse under good growth conditions. 2 to 3 weeks after sowing, the test plants are treated at the one-leaf stage. The compounds of the invention, formulated in the form of wettable powders (WP) or as emulsion concentrates (EC), are then sprayed onto the green parts of the plants as aqueous suspension or emulsion at a water application rate equating to 600 to 800 l/ha with addition of 0.2% wetting agent. After the test plants have been left to stand in the greenhouse under optimal growth conditions for about 3 weeks, the action of the preparations is assessed visually in comparison to untreated controls (herbicidal action in percent (%): 100% activity=the plants have died, 0% activity=like control plants).

SETVI [7] = assay: Post-emergence herbicidal action against SETVI; format: in vivo, Setaria viridis; details: 80 g/ha, visual assessment about 3 weeks after treatment vs untreated controls
Protocol: as §3

VIOTR = assay: Pre-emergence herbicidal action against VIOTR; format: in vivo, Viola tricolor; details: 320 g/ha
From the text: as §1, §2

AMARE = assay: Pre-emergence herbicidal action against AMARE; format: in vivo, Amaranthus retroflexus; details: 320 g/ha
From the text: as §1, §2

DIGSA [8] = assay: Post-emergence herbicidal action against DIGSA; format: in vivo, Digitaria sanguinalis; details: 80 g/ha, visual assessment about 3 weeks after treatment vs untreated controls
Protocol: as §3

SETVI [9] = assay: Pre-emergence herbicidal action against SETVI; format: in vivo, Setaria viridis; details: 320 g/ha, scored visually after 3 weeks vs untreated controls
From the text: as §1, §2

ECHCG [10] = assay: Post-emergence herbicidal action against ECHCG; format: in vivo, Echinochloa crus-galli; details: 80 g/ha, visual assessment about 3 weeks after treatment vs untreated controls
Protocol: as §3

AVEFA [11] = assay: Post-emergence herbicidal action against AVEFA; format: in vivo, Avena fatua; details: 80 g/ha, visual assessment after about 3 weeks
Protocol: as §3

LOLRI [12] = assay: Post-emergence herbicidal action against LOLRI; format: in vivo, Lolium rigidum; details: 80 g/ha, visual assessment about 3 weeks after treatment vs untreated controls
Protocol: as §3

Compound | Pre-emergence herbicidal action against LOLRI in % (LOLRI [1]) [%] | Pre-emergence action against AVEFA in % (AVEFA [2]) [%] | Pre-emergence action against ALOMY in % (ALOMY [3]) [%] | Pre-emergence action against DIGSA in % (DIGSA [4]) [%] | Pre-emergence action against ECHCG in % (ECHCG [5]) [%] | Post-emergence action against ALOMY in % (ALOMY [6]) [%] | Post-emergence action against SETVI in % (SETVI [7]) [%] | Pre-emergence action against VIOTR in % (VIOTR) [%] | Pre-emergence action against AMARE in % (AMARE) [%] | Post-emergence action against DIGSA in % (DIGSA [8]) [%] | Pre-emergence action against SETVI in % (SETVI [9]) [%] | Post-emergence action against ECHCG in % (ECHCG [10]) [%] | Post-emergence action against AVEFA in % (AVEFA [11]) [%] | Post-emergence action against LOLRI in % (LOLRI [12]) [%]
CC#Cc1cc(C)c(C2=C(O)C3(CCC(COCC)C3)NC2=O)c(Br)c1 (centres unmarked) [Example I-21] | 100 | 100 | 100 | 100 | 100 | 100 | 100 | 100 | 100 | 100 | 100 | 100 |  | 
C#CCOCC1CCC2(C1)NC(=O)C(c1c(F)cc(C#CC)cc1OC)=C2OC(=O)OCC (centres unmarked) [Example P-102] | 100 | 80 | 100 | 100 | 100 | 90 | 90 |  | 90 | 90 | 100 | 80 | 80 | 90
C=CCOCC1CCC2(C1)NC(=O)C(c1c(F)cc(C#CC)cc1OC)=C2O (centres unmarked) [Example I-55] | 100 |  | 100 | 100 | 100 | 100 | 100 |  | 80 |  | 100 | 100 | 90 | 
CC#Cc1cc(C)c(C2=C(OC(=O)C(C)C)C3(CCC(COC)C3)NC2=O)c(F)c1 (centres unmarked) [Example P-57] | 100 | 80 | 100 | 100 | 100 | 100 | 100 | 100 | 80 | 100 | 100 | 100 | 90 | 100
CC#Cc1cc(F)c(C2=C(OC(=O)C(C)C)C3(CCC(COC)C3)NC2=O)c(OC)c1 (centres unmarked) [Example P-65] | 100 | 100 | 100 | 100 | 100 | 90 | 100 | 80 |  | 100 | 100 | 90 | 90 | 100
